Data: patent US9115122B2, “Non-ATP dependent inhibitors of extracellular signal-regulated kinase (ERK)” (UNIVERSITY OF MARYLAND, BALTIMORE, priority 2012, dated 2015)

Tests used:
Test in all cases: Cell proliferation WST-1 assay, single dose (Example 4)
Type in all cases: cell-based
Details in all cases: 100 μM, 48 hours
HL-60 leukemic cells = tested on: HL-60 leukemic cells
Protocol: (§1) In addition, compounds were tested in RPMI-7951 cells, which also contain mutated BRaf and are resistant to BRaf inhibitors due to the overexpression of MAP3K8 (the gene encoding COT/Tp12) that provides an alternative mechanism to indirectly or directly activate ERK proteins. […] For comparison, HeLa cervical carcinoma and Jurkat T-cell leukemia cells, which are p53 defective cancer cell lines but contain no known activating mutations in the ERK pathway, were studied. […] Cell proliferation was evaluated by water soluble tetrazolium-1 (WST-1) assay as previously described. Briefly, cells (˜5000/well) were seeded in 96 well plates, allowed to recover for 16-20 hours, and then treated with the indicated test compound for 48 hours. After incubation, WST-1 reagent was added and absorbance was read at 450 nm with background subtraction taken at 650 nm. Values were normalized to the control (DMSO only treated) cells.

RPMI-7951 melanoma cells = tested on: RPMI-7951 melanoma cells
Protocol: as §1

SK-MEL-28 melanoma cells = tested on: SK-MEL-28 melanoma cells
Protocol: as §1

[1] = tested on: Jurkat T-cell leukemia cells
Protocol: as §1

[2] = tested on: HeLa cervical carcinoma cells
Protocol: as §1

A375 melanoma cells = tested on: A375 melanoma cells
Protocol: as §1

SMILES | Cell Viability (% of Vehicle) HL-60 (HL-60 leukemic cells) | Cell Viability (% of Vehicle) RPMI-7951 (RPMI-7951 melanoma cells) | Cell Viability (% of Vehicle) SK-MEL-28 (SK-MEL-28 melanoma cells) | Cell Viability (% of Vehicle) Jurkat [1] | Cell Viability (% of Vehicle) HeLa [2] | Cell Viability (% of Vehicle) A375 (A375 melanoma cells)
CCOc1ccc(/C=C2\SC(=O)N(CCNC(=O)C(F)(F)F)C2=O)cc1 [Compound 25b, (Z)—N-(2-(5-(4-ethoxybenzylidene)-2,4-dioxothiazolidin-3-yl)ethyl)-2,2,2-trifluoroacetamide] | 101 ± 23 % of Vehicle | 127 ± 3 % of Vehicle | 105 ± 2 % of Vehicle | 103 ± 6 % of Vehicle | 98 ± 11 % of Vehicle | 118 ± 4 % of Vehicle
CCOc1ccc(/C=C2\SC(=O)N(CCNC(=O)OC(C)(C)C)C2=O)cc1 [Compound 25c, (Z)-tert-butyl (2-(5-(4-ethoxybenzylidene)-2,4-dioxothiazolidin-3-yl)ethyl)carbamate] | 31 ± 5 % of Vehicle | 62 ± 7 % of Vehicle | 73 ± 1 % of Vehicle | 92 ± 7 % of Vehicle | 81 ± 1 % of Vehicle | 84 ± 2 % of Vehicle
CCOc1ccc(/C=C2\SC(=O)N(CCNC(=O)c3ccc(C#N)cc3)C2=O)cc1 [Compound 25d, (Z)-4-cyano-N-(2-(5-(4-ethoxybenzylidene)-2,4-dioxothiazolidin-3-yl)ethyl)benzamide] | 101 ± 12 % of Vehicle | 122 ± 10 % of Vehicle | 103 ± 2 % of Vehicle | 102 ± 7 % of Vehicle | 99 ± 9 % of Vehicle | 118 ± 3 % of Vehicle
CCOc1ccc(/C=C2\SC(=O)N(CCNC(=O)OC)C2=O)cc1 [Compound 26a, (Z)-methyl (2-(5-(4-ethoxybenzylidene)-2,4-dioxothiazolidin-3-yl)ethyl)carbamate] | 104 ± 31 % of Vehicle | 102 ± 4 % of Vehicle | 88 ± 3 % of Vehicle | 97 ± 7 % of Vehicle | 84 ± 4 % of Vehicle | 96 ± 4 % of Vehicle
CCOc1ccc(/C=C2\SC(=O)N(CCNC(=O)OC(C)(C)C)C2=O)cc1 [Compound 26b, (Z)-tert-butyl (2-(5-(4-ethoxybenzylidene)-2,4-dioxothiazolidin-3-yl)ethyl)carbamate] | 95 ± 21 % of Vehicle | 67 ± 4 % of Vehicle | 83 ± 5 % of Vehicle | 111 ± 9 % of Vehicle | 88 ± 5 % of Vehicle | 88 ± 3 % of Vehicle
CCOc1ccc(/C=C2\SC(=O)N(CCNC(=O)OCC(C)C)C2=O)cc1 [Compound 26c, (Z)-isobutyl (2-(5-(4-ethoxybenzylidene)-2,4-dioxothiazolidin-3-yl)ethyl)carbamate] | 80 ± 28 % of Vehicle | 75 ± 12 % of Vehicle | 94 ± 1 % of Vehicle | 110 ± 4 % of Vehicle | 95 ± 3 % of Vehicle | 102 ± 4 % of Vehicle
CCOc1ccc(/C=C2\SC(=O)N(CCNC(=O)OCc3ccccc3)C2=O)cc1 [Compound 26d, (Z)-benzyl (2-(5-(4-ethoxybenzylidene)-2,4-dioxothiazolidin-3-yl)ethyl)carbamate] | 85 ± 27 % of Vehicle | 54 ± 6 % of Vehicle | 97 ± 1 % of Vehicle | 112 ± 5 % of Vehicle | 98 ± 6 % of Vehicle | 103 ± 3 % of Vehicle
CCOc1ccc(/C=C2\SC(=O)N(CCNC(=O)OCC3c4ccccc4-c4ccccc43)C2=O)cc1 [Compound 26e, (Z)-(9H-fluoren-9-yl)methyl (2-(5-(4-ethoxybenzylidene)-2,4-dioxothiazolidin-3-yl)ethyl)carbamate] | 103 ± 13 % of Vehicle | 27 ± 3 % of Vehicle | 29 ± 7 % of Vehicle | 139 ± 14 % of Vehicle | 85 ± 4 % of Vehicle | 43 ± 3 % of Vehicle
CCOc1ccc(/C=C2\SC(=O)N(CCNS(C)(=O)=O)C2=O)cc1 [Compound 27a, (Z)—N-(2-(5-(4-ethoxybenzylidene)-2,4-dioxothiazolidin-3-yl)ethyl)methanesulfonamide] | 82 ± 44 % of Vehicle | 68 ± 3 % of Vehicle | 87 ± 2 % of Vehicle | 85 ± 3 % of Vehicle | 82 ± 1 % of Vehicle | 94 ± 2 % of Vehicle
CCOc1ccc(/C=C2\SC(=O)N(CCNS(=O)(=O)c3ccc(C#N)cc3)C2=O)cc1 [Compound 27b, (Z)-4-cyano-N-(2-(5-(4-ethoxybenzylidene)-2,4-dioxothiazolidin-3-yl)ethyl)benzenesulfonamide] | 101 ± 52 % of Vehicle | 99 ± 4 % of Vehicle | 95 ± 3 % of Vehicle | 103 ± 3 % of Vehicle | 90 ± 4 % of Vehicle | 109 ± 6 % of Vehicle
CCOc1ccc(/C=C2\SC(=O)N(CCNS(=O)(=O)c3cn(C)cn3)C2=O)cc1 [Compound 27c, (Z)—N-(2-(5-(4-ethoxybenzylidene)-2,4-dioxothiazolidin-3-yl)ethyl)-1-methyl-1H-imidazole-4-sulfonamide] | 51 ± 31 % of Vehicle | 118 ± 6 % of Vehicle | 92 ± 5 % of Vehicle | 97 ± 4 % of Vehicle | 91 ± 5 % of Vehicle | 107 ± 2 % of Vehicle
CCCN1C(=O)S/C(=C\c2ccc(OCC)cc2)C1=O [Compound 28d, (Z)-5-(4-ethoxybenzylidene)-3-propylthiazolidine-2,4-dione] | 80 ± 26 % of Vehicle | 116 ± 10 % of Vehicle | 101 ± 3 % of Vehicle | 101 ± 5 % of Vehicle | 96 ± 4 % of Vehicle | 119 ± 5 % of Vehicle
CCOc1ccc(/C=C2\SC(=O)N(CCO)C2=O)cc1 [Compound 28e, (Z)-5-(4-ethoxybenzylidene)-3-(2-hydroxyethyl)thiazolidine-2,4-dione] | 91 ± 19 % of Vehicle | 137 ± 8 % of Vehicle | 91 ± 1 % of Vehicle | 101 ± 4 % of Vehicle | 91 ± 2 % of Vehicle | 116 ± 4 % of Vehicle
CCOc1ccc(/C=C2\SC(=O)N(CCCl)C2=O)cc1 [Compound 28f, (Z)-3-(2-chloroethyl)-5-(4-ethoxybenzylidene)thiazolidine-2,4-dione] | 99 ± 14 % of Vehicle | 128 ± 3 % of Vehicle | 97 ± 3 % of Vehicle | 99 ± 5 % of Vehicle | 87 ± 4 % of Vehicle | 113 ± 9 % of Vehicle
CCOc1ccc(/C=C2\SC(=O)N(CC(=O)OC(C)(C)C)C2=O)cc1 [Compound 28g, (Z)-tert-butyl 2-(5-(4-ethoxybenzylidene)-2,4-dioxothiazolidin-3-yl)acetate] | 95 ± 18 % of Vehicle | 110 ± 3 % of Vehicle | 101 ± 2 % of Vehicle | 108 ± 3 % of Vehicle | 88 ± 7 % of Vehicle | 117 ± 7 % of Vehicle
